Laboratory results taken from patent US8623862B2, “Derivatives of N-[(1H-pyrazol-1-yl)aryl]-1H-indole or 1H-indazole-3-carboxamide, preparation thereof and applications thereof in therapeutics” (Sanofi, priority 2011, dated 2014).
Read-outs that look alike come from different tables or passages of the source.

Test system: platelet aggregation
Test: Inhibition of platelet aggregation in vitro (rat blood);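 further: aggregation induced by ADP added as 4 µL of a 250 µM solution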
Assay type: cell-based
Details: read-out: Inhibition of platelet aggregation in vitro (rat blood);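 further: aggregation induced by ADP added as 4 µL of a 250 µM solution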
Description: The measurements of platelet aggregation are performed at 37° C. in glass tubes (Chrono-Log—Kordia aggregometer).
Inhibition of Platelet Aggregation In Vitro (Rat Blood)
The blood is taken from male rats of the Sprague-Dawley strain, weighing 250-300 g.
The platelet-rich plasma (PRP) is obtained by centrifugation of the blood at 300 g for 5 minutes, and the measurements of platelet aggregation are performed as described above.
The results are calculated using the area under the curve of absorbance measured for 6 minutes, and expressed as percentage inhibition.

[1] = rat platelet-rich plasma, ADP-induced aggregation, area under the curve of absorbance for 6 minutes

SMILES	IC50 (rat blood, in vitro) [nM]	IC50 [1] [nM]
CCCC(=O)c1cnn(-c2ccc(NC(=O)c3cn(CC(=O)N4CCC(OCCO)C4)c4ccc(Cl)cc34)cc2)c1C (centres unmarked) [Compound 208]	370	
CCCC(=O)c1cnn(-c2ccc(NC(=O)c3cn(CC(=O)N4CCN(Cc5ccc(Cl)cc5)CC4)c4ccc(Cl)cc34)cc2)c1C [Compound 167]	470	
CCCC(=O)c1cnn(-c2ccc(NC(=O)c3cn(CC(=O)N4CCN(Cc5ccc(OC)c(F)c5)CC4)c4ccc(Cl)cc34)nn2)c1C [Compound 85]		100
CCCC(=O)c1cnn(-c2ccc(NC(=O)c3cn(CC(=O)N4CCN(CC5CCCO5)CC4)c4ccc(Cl)cc34)nn2)c1C (racemic) [Compound 63]		120
CCCC(=O)c1cnn(-c2ccc(NC(=O)c3cn(CC(=O)O)c4ccc(C#N)cc34)cc2)c1C [Compound 23]		4100
CCCC(=O)c1cnn(-c2ccc(NC(=O)c3cn(CC(=O)N4CCS(=O)(=O)CC4)c4ccc(Cl)cc34)nn2)c1C [Compound 71]		120
CCCC(=O)c1cnn(-c2ccc(NC(=O)c3cn(CC(=O)N4CCN(CC(F)F)CC4)c4ccc(C)cc34)cc2)c1C [Compound 118]	290	
CCCC(=O)c1cnn(-c2ccc(NC(=O)c3cn(CC(=O)N(C)CCN(C)C)c4cc(C)c(C)cc34)cc2)c1C [Compound 110]	3990	
CCCC(=O)c1cnn(-c2ccc(NC(=O)c3cn(CC(=O)N4CCN(CCC(=O)OCC)CC4)c4ccc(Cl)cc34)cc2)c1C [Compound 153]	290	
CC(=O)c1cnn(-c2ccc(NC(=O)c3cn(CC(=O)N4CCN(C)CC4)c4ccc(Cl)cc34)cc2)c1C [Compound 216]	730	
CCCC(=O)c1cnn(-c2ccc(NC(=O)c3cn(CC(=O)N4CC5CCN(C)C5C4)c4ccc(C)cc34)cc2)c1C (centres unmarked) [Compound 265]		790
CCCC(=O)c1cnn(-c2ccc(NC(=O)c3cn(CC(=O)N4CCN(C(C)C)CC4)c4ccc(Cl)cc34)nn2)c1C [Compound 54]		110
CCCC(=O)c1cnn(-c2ccc(NC(=O)c3cn(CC(=O)N4CCC(F)(F)C4)c4ccc(Cl)cc34)cc2)c1C [Compound 189]	410	
CCCC(=O)c1cnn(-c2ccc(NC(=O)c3cn(CC(=O)N4CCN(C5CCC5)CC4)c4ccc(Cl)cc34)cc2)c1C [Compound 201]	650	
CCCC(=O)c1cnn(-c2ccc(NC(=O)c3cn(CC(=O)N4CC5CC4CN5C4CCC4)c4ccc(Cl)cc34)cc2)c1C (centres unmarked) [Compound 214]	660	
CCCC(=O)c1cnn(-c2ccc(NC(=O)c3cn(CC(=O)O)c4ccc(F)cc34)cc2)c1C [Compound 18]		36000
CCCC(=O)c1cnn(-c2ccc(NC(=O)c3cn(CC(=O)N4CC(N5CCCCC5)C4)c4ccc(Cl)cc34)nn2)c1C [Compound 86]		390
CCCC(=O)c1cnn(-c2ccc(NC(=O)c3cn(CC(=O)N4CCC(N5CCOCC5)CC4)c4ccc(Cl)cc34)cc2)c1C [Compound 149]	410	
CCCC(=O)c1cnn(-c2ccc(NC(=O)c3cn(CC(=O)N4CCNCC4CO)c4ccc(C)cc34)cc2)c1C (centres unmarked) [Compound 254]		190
CCCCN1CCN(C(=O)Cn2cc(C(=O)Nc3ccc(-n4ncc(C(=O)CCC)c4C)nn3)c3cc(Cl)ccc32)CC1 [Compound 55]		160
CCCC(=O)c1cnn(-c2ccc(NC(=O)c3cn(CC(=O)N4CCOCC4)c4ccc(C)cc34)cc2)c1C [Compound 128]	290	
CCCC(=O)c1cnn(-c2ccc(NC(=O)c3cn(CC(=O)N4CCN(CCN(C)C)CC4)c4ccc(Cl)cc34)nn2)c1C [Compound 98]		70
CCCC(=O)c1cnn(-c2ccc(NC(=O)c3cn(CC(=O)N4CCN(C(C)=O)CC4)c4ccc(Cl)cc34)nn2)c1C [Compound 42]		150
CCCC(=O)c1cnn(-c2ccc(NC(=O)c3cn(CC(=O)N4CC(C)NC(C)C4)c4ccc(Cl)cc34)cc2)c1C (centres unmarked) [Compound 159]	410	
CCCC(=O)c1cnn(-c2ccc(NC(=O)c3cn(CC(=O)N4CCN(CCOCC)CC4)c4ccc(Cl)cc34)cc2)c1C [Compound 161]	370	
CCCC(=O)c1cnn(-c2ccc(NC(=O)c3cn(CC(=O)N4CC5CCCCN5CC4C)c4ccc(Cl)cc34)nn2)c1C (centres unmarked) [Compound 89]		170
